Tested on: OGD-injuried neurons (primary cortical neurons)
Assay: Cell viability assay: LDH release by OGD-injured primary cortical neurons
Assay type: cell-based, mice
Details: Mus musculus, Primary cortical neuron; drug concentration 10^−6 M/L; OGD 2 hours, LDH after 8 hours
Protocol: After primary neurons were cultured for 9 days, the medium was replaced by DMEM high glucose medium containing 1% FBS, serum-starved overnight and then washed twice with OGD culture solution. This OGD culture solution contains DMEM medium, 1% FBS, 1% penicillin/streptomycin and B27, and contains no sugar. Then, the primary neurons were incubated with the test drugs for 30 minutes, OGD culture solution was added into an anaerobic tank and oxygen-deprived for 2 hours. The OGD culture solution was discarded, and replaced by oxygen-saturated DMEM medium containing 1% FBS, 1% penicillin/streptomycin and B27. After 8 hours the culture solution was collected to measure LDH level.
After the primary cortical neurons were treated with various processes, neuronal culture solution in six-well plates was pipetted to a 1.5 mL plastic centrifuge tube; cells were washed three times with PBS solution and each well was added PBS 1000 μl. The cells were freezed and thawed repeated for three times, centrifuged at 12000′ g for 5 minutes at 4° C., and the supernatant was removed for use. The activity of LDH enzyme was determined with 50 μl culture solution and 25 μl supernatant using lactate dehydrogenase kit.
Protective Effects of the Objective Compounds Against Primary Cortical Neuronal Injury Cultured In Vitro (See Table 2)

Compound | inhibition at 1 µM [%]
CC(=O)Oc1c(C(=O)OC2CC3CCC2(C)C3(C)C)ccc(NCc2cc(Cl)cc(Cl)c2O)c1Cl (centres unmarked) [ZL006-19, bornyl-2-acetyloxy-3-chloro-4-(2-hydroxy-3,5-dichlorobenzyl)aminobenzoate] | 23.9
CC(=O)Oc1cc(NCc2cc(C(F)(F)F)ccc2O)ccc1C(=O)OC1CC2CCC1(C)C2(C)C (centres unmarked) [ZL006-74, bornyl-2-acetyloxy-4-(2-hydroxy-5-trifluoromethylbenzyl)aminobenzoate] | 24.7
CC1(C)C2CCC1(C)C(OC(=O)c1ccc(NCc3cc(Cl)cc(Cl)c3O)c(Cl)c1O)C2 (centres unmarked) [ZL006-17, bornyl-2-hydroxy-3-chloro-4-(2-hydroxy-3,5-dichlorobenzyl)aminobenzoate] | 48.2
CC1(C)C2CCC1(C)C(OC(=O)c1cc(NCc3cc(F)cc(Cl)c3O)ccc1O)C2 (centres unmarked) [ZL006-56, bornyl-2-hydroxy-5-(2-hydroxy-3-chloro-5-fluorobenzyl)aminobenzoate] | 50
CC(Nc1ccc(C(=O)O)c(O)c1)c1cc(Br)ccc1O (centres unmarked) [ZL006-15, 2-hydroxy-4-[1-(2-hydroxy-5-bromo-phenyl)]ethylaminobenzoic acid] | 28.6
CC1(C)C2CCC1(C)C(OC(=O)c1cc(NCc3cc(C(F)(F)F)cc(Cl)c3O)ccc1O)C2 (centres unmarked) [ZL006-48, bornyl-2-hydroxy-5-(2-hydroxy-3-chloro-5-trifluoromethylbenzyl)aminobenzoate] | 21.1
COc1c(Cl)cc(C(F)(F)F)cc1CNc1ccc(C(=O)OC2CC3CCC2(C)C3(C)C)c(O)c1 (centres unmarked) [ZL006-79, bornyl-2-hydroxy-4-(2-methoxy-3-chloro-5-trifluoromethylbenzyl)aminobenzoate] | 58.3
CC(=O)Oc1c(Cl)cc(C(F)(F)F)cc1CNc1ccc(C(=O)OC2CC3CCC2(C)C3(C)C)c(O)c1 (centres unmarked) [ZL006-80, bornyl-2-hydroxy-4-(2-acetyloxy-3-chloro-5-trifluoromethylbenzyl)aminobenzoate] | 41.1

Same assay, conditions: drug concentration 10^−6 M/L; OGD 2 hours, LDH after 8 hours

Compound | Inhibition of LDH release (%)
CN(Cc1cc(F)cc(Cl)c1O)c1ccc(C(=O)OC2CC3CCC2(C)C3(C)C)c(O)c1 (centres unmarked) [ZL006-61, bornyl-2-hydroxy-4-[N-(2-hydroxy-3-chloro-5-fluorobenzyl)-N-methyl]aminobenzoate] | 56.5
COc1cc(NCc2cc(C(F)(F)F)ccc2O)ccc1C(=O)OC1CC2CCC1(C)C2(C)C (centres unmarked) [ZL006-73, bornyl-2-methoxy-4-(2-hydroxy-5-trifluoromethylbenzyl) aminobenzoate] | 25.3
CC(=O)Oc1ccc(NCc2cc(Cl)cc(Cl)c2O)cc1C(=O)OC1CC2CCC1(C)C2(C)C (centres unmarked) [ZL006-02, bornyl-2-acetyloxy-5-(2-hydroxy-3,5-dichlorobenzyl) aminobenzoate] | 21.4
COc1cc(NCc2cc(Br)cc(Cl)c2O)ccc1C(=O)OC1CC2CCC1(C)C2(C)C (centres unmarked) [ZL006-41, bornyl-2-methoxy-4-(2-hydroxy-3-chloro-5-bromobenzyl) aminobenzoate] | 45.5
CCCCOc1cc(NCc2cc(Br)cc(Cl)c2O)ccc1C(=O)OC1CC2CCC1(C)C2(C)C (centres unmarked) [ZL006-42, bornyl-2-n-butoxy-4-(2-hydroxy-3-chloro-5-bromobenzyl) aminobenzoate] | 37.7
CC(=O)Oc1cc(NCc2cc(Br)ccc2O)ccc1C(=O)OC1CC2CCC1(C)C2(C)C (centres unmarked) [ZL006-65, bornyl-2-acetyloxy-4-(2-hydroxy-5-bromobenzyl) aminobenzoate] | 38.2
COc1c(Cl)cc(Br)cc1CNc1ccc(C(=O)OC2CC3CCC2(C)C3(C)C)c(O)c1 (centres unmarked) [ZL006-77, bornyl-2-hydroxy-4-(2-methoxy-3-chloro-5-bromobenzyl) aminobenzoate] | 44.1
COc1cc(NCc2cc(Cl)ccc2O)ccc1C(=O)OC1CC2CCC1(C)C2(C)C (centres unmarked) [ZL006-67, bornyl-2-methoxy-4-(2-hydroxy-5-chlorobenzyl) aminobenzoate] | 0.4
COc1cc(NCc2cc(Br)ccc2O)ccc1C(=O)OC1CC2CCC1(C)C2(C)C (centres unmarked) [ZL006-64, bornyl-2-methoxy-4-(2-hydroxy-5-bromobenzyl) aminobenzoate] | 25.4
bornyl-2-(2-methoxy-2-carbonylethoxy)-4-[N-(2-hydroxy-3,5-dichlorobenzyl)-N-methyl]aminobenzoate [ZL006-34] | 24.1
CC(=O)Oc1c(Cl)cc(Br)cc1CNc1ccc(C(=O)OC2CC3CCC2(C)C3(C)C)c(O)c1 (centres unmarked) [ZL006-78, bornyl-2-hydroxy-4-(2-acetyloxy-3-chloro-5-bromobenzyl) aminobenzoate] | 70.6
CC(Nc1ccc(C(=O)O)c(O)c1)c1cc(Cl)ccc1O (centres unmarked) [ZL006-14, 2-hydroxy-4-[1-(2-hydroxy-5-chlorophenyl)]-ethylaminobenzoic acid] | 19.9
COc1cc(NCc2cc(F)cc(Cl)c2O)ccc1C(=O)OC1CC2CCC1(C)C2(C)C (centres unmarked) [ZL006-57, bornyl-2-methoxy-4-(2-hydroxy-3-chloro-5-fluorobenzyl) aminobenzoate] | 23.6
CCCCOc1cc(NCc2cc(Cl)cc(Cl)c2O)ccc1C(=O)OC1CC2CCC1(C)C2(C)C (centres unmarked) [ZL006-21, bornyl-2-n-butoxy-4-(2-hydroxy-3,5-dichlorobenzyl) aminobenzoate] | 6.2
methyl 2-acetyloxy-4-[N-(2-hydroxy-3,5-dichlorobenzyl)-N-(bornyl-2-carbonylethyl)]aminobenzoate [ZL006-38] | 41.3
CCCCOc1cc(NCc2cc(F)cc(Cl)c2O)ccc1C(=O)OC1CC2CCC1(C)C2(C)C (centres unmarked) [ZL006-58, bornyl-2-n-butoxy-4-(2-hydroxy-3-chloro-5-fluorobenzyl) aminobenzoate] | 25.1
COc1c(Cl)cc(Cl)cc1CNc1ccc(C(=O)OC2CC3CCC2(C)C3(C)C)c(O)c1 (centres unmarked) [ZL006-75, bornyl-2-hydroxy-4-(2-methoxy-3,5-dichlorobenzyl) aminobenzoate] | 31.3
COc1cc(NCc2cc(Cl)cc(Cl)c2O)c(Cl)cc1C(=O)OC1CC2CCC1(C)C2(C)C (centres unmarked) [ZL006-25, bornyl-2-methoxy-4-(2-hydroxy-3,5-dichlorobenzyl) amino-5-chlorobenzoate] | 30.6
CN(Cc1cc(Cl)cc(Cl)c1O)c1ccc(O)c(C(=O)O)c1 [ZL006-12, 2-hydroxy-5-[N-(2-hydroxy-3,5-dichlorobenzyl)-N-methyl]aminobenzoic acid] | 15.1
CC1(C)C2CCC1(C)C(OC(=O)c1ccc(NCc3cc(Br)ccc3O)cc1O)C2 (centres unmarked) [ZL006-63, bornyl-2-hydroxy-4-(2-hydroxy-5-bromobenzyl) aminobenzoate] | 22.8
COC(=O)c1ccc(N(Cc2cc(Cl)cc(Cl)c2O)C(C)=O)cc1OC(C)=O [ZL006-81, methyl 2-acetyloxy-4-[N-(2-hydroxy-3,5-dichlorobenzyl)-N-acetyl]aminobenzoate] | 31.8
CC(=O)Oc1c(Cl)cc(Cl)cc1CNc1ccc(C(=O)OC2CC3CCC2(C)C3(C)C)c(O)c1 (centres unmarked) [ZL006-76, bornyl-2-hydroxy-4-(2-acetyloxy-3,5-dichlorobenzyl) aminobenzoate] | 40.5
CC(=O)Oc1cc(NCc2cc(Cl)cc(Cl)c2O)c(Cl)cc1C(=O)OC1CC2CCC1(C)C2(C)C (centres unmarked) [ZL006-18, bornyl-2-acetyloxy-4-(2-hydroxy-3,5-dichlorobenzyl) amino-5-chlorobenzoate] | 41.5
CC1(C)C2CCC1(C)C(OC(=O)c1cc(NCc3cc(Cl)cc(Cl)c3O)ccc1O)C2 (centres unmarked) [ZL006-01, bornyl-2-hydroxy-5-(2-hydroxy-3,5-dichlorobenzyl) aminobenzoate] | 2.3
CN(Cc1cc(Cl)cc(Cl)c1O)c1ccc(C(=O)OC2CC3CCC2(C)C3(C)C)c(O)c1 (centres unmarked) [ZL006-27, bornyl-2-hydroxy-4-[N-(2-hydroxy-3,5-dichlorobenzyl)-N-methyl]aminobenzoate] | 25.3
CC(=O)N(Cc1cc(C(F)(F)F)cc(Cl)c1O)c1ccc(C(=O)OC2CC3CCC2(C)C3(C)C)c(O)c1 (centres unmarked) [ZL006-54, bornyl-2-hydroxy-4-[N-(2-hydroxy-3-chloro-5-trifluoromethylbenzyl)-N-acetyl]aminobenzoate] | 74.2
CC1(C)C2CCC1(C)C(OC(=O)c1cc(NCc3cc(Br)cc(Cl)c3O)ccc1O)C2 (centres unmarked) [ZL006-40, bornyl-2-hydroxy-5-(2-hydroxy-3-chloro-5-bromobenzyl) aminobenzoate] | 41.8
COC(=O)c1ccc(N(Cc2cc(C(F)(F)F)cc(Cl)c2O)C(C)=O)cc1OC(C)=O [ZL006-83, methyl 2-acetyloxy-4-[N-(2-hydroxy-3-chloro-5-trifluoromethylbenzyl)-N-acetyl]aminobenzoate] | 33.2
COc1cc(NCc2cc(F)ccc2O)ccc1C(=O)OC1CC2CCC1(C)C2(C)C (centres unmarked) [ZL006-70, bornyl-2-methoxy-4-(2-hydroxy-5-fluorobenzyl) aminobenzoate] | 2.4
CCOC(=O)c1ccc(N(C)Cc2cc(Cl)cc(Cl)c2O)cc1C(=O)OCC [ZL006-13, diethyl 4-[N-(3,5-dichloro-2-hydroxybenzyl)-N-methyl]aminophthalate] | 31.4

Source: US9481636B2, “N-benzylaniline derivative and uses thereof” (Nanjing Medical University, priority 2011, dated 2016)
